The target of assay [1] is T1, recombinant human Lysyl Oxidase-Like 2 (LOXL2) (Homo sapiens, UniProt Q9Y4K0).
T1 construct: purchased R&D systems
T1 sequence (Q9Y4K0 26-774): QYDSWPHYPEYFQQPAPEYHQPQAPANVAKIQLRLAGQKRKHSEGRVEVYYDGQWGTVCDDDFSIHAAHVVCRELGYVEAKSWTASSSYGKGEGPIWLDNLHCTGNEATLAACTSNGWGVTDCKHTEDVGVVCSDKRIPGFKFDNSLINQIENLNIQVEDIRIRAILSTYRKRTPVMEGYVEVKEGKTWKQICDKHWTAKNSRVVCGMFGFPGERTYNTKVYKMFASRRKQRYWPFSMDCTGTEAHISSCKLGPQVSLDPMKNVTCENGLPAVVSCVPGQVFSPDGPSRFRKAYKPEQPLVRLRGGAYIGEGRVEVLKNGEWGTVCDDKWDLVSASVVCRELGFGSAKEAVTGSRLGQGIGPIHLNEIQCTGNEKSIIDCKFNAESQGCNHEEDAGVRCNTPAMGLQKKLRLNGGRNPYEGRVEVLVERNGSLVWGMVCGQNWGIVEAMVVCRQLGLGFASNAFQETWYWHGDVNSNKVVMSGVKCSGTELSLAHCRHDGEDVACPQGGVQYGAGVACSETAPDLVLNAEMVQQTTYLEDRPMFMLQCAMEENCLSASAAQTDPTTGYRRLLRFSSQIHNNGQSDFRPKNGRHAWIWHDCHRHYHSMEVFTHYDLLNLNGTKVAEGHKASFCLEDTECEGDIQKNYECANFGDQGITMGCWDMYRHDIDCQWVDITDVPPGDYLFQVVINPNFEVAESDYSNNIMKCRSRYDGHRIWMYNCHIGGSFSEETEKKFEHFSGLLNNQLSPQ
The assay is described as follows: Amplex Red HRP-coupled amine oxidase assay, recombinant human LOXL2. The format is biochemical. The note with it: 60 min incubation with enzyme at 37° C., putrescine substrate, read-out: Inhibitory activity (IC50, nM) human LOXL2. The protocol:
(§1) The activities of the compounds according to the present invention against recombinant human Lysyl Oxidase-Like 2 (recombinant human LOXL2, R&D systems) were evaluated by measuring the levels of hydrogen peroxide in the HRP (horseradish peroxidase) coupled reactions, with the Amplex Red Hydrogen Peroxide Assay Kit (Molecular Probes, Invitrogen, USA). The tests were carried out at 37° C., and putrescine was used as a substrate. In the HRP coupling reaction, the oxidation of 10-acetyl-3,7-dihydroxyphenoxazine (Amplex Red reagent) by hydrogen peroxide generates a fluorescent product, i.e., resorufin. Briefly, the test compounds were dissolved in dimethyl sulfoxide (DMSO) at a concentration of 20 mM. Dose-response measurements were carried out by serial dilutions in DMSO to generate a six-point curve. The upper concentration was adjusted according to the potency of the compound, and then diluted with the reaction buffer to obtain a final DMSO concentration of 1%. Purified human LOXL2 in 50 mM sodium phosphate buffer (pH7.4) was added to each well of a 96 well black plate. The test compounds dissolved in DMSO were incubated with the human LOXL2 enzyme at 37° C. for 60 minutes. After the incubation for 60 minutes, a reaction mixture containing 400 μM Amplex Red reagent, 30 mM putrescine, and 2 U/mL HRP in 50 mM sodium phosphate buffer (pH 7.4) was added to each well. Fluorescence was measured with a microplate reader (Flexstation3, Molecular Devices), under the conditions of excitation at 530 nm and emission at 590 nm, 1 hour after the addition of the mixture. Inhibition by each compound was measured as % reduction in signal, compared to the control without an inhibitor (diluted DMSO only). The data were fixed to a four-variable logistic model, and […] values were calculated using the GraphPad Prism program.

In assay [2] the target is T2, recombinant human DAO (diamine oxidase) (Homo sapiens, UniProt P19801).
T2 construct: purchased R&D systems
T2 sequence (P19801 20-751): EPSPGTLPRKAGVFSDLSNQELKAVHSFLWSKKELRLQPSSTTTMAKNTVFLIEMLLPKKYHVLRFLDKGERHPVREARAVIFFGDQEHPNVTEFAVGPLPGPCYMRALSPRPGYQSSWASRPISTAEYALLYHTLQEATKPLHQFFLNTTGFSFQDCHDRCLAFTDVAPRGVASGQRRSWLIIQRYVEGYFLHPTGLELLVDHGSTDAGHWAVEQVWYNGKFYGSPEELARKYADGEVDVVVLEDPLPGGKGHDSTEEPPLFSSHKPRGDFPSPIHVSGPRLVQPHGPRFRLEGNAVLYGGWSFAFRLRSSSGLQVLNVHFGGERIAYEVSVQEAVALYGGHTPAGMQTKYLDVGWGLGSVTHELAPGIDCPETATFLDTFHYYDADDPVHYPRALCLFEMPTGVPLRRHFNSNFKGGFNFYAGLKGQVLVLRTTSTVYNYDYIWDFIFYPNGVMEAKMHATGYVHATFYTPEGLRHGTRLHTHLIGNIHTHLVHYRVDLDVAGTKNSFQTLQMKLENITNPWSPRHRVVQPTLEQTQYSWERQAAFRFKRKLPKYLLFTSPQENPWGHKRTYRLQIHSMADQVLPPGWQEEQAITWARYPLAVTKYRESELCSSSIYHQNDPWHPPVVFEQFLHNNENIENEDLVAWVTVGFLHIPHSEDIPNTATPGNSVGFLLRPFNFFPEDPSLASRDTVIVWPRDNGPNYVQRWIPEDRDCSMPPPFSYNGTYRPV
The assay is described as follows: Amplex Red HRP-coupled amine oxidase assay, recombinant human DAO. The format is biochemical. Particulars: 1 mM putrescine substrate, read-out: Inhibitory activity (IC50, nM) DAO. As for the experimental part:
as §1
And, the activities of the compounds according to the present invention against recombinant human MAO-A (monoamine oxidase-A, Sigma-Aldrich) and recombinant human MAO-B (monoamine oxidase-B, Sigma-Aldrich) were evaluated in a similar manner to the activity evaluation method for recombinant human LOXL2, using 0.5 mM tyramine and 1 mM benzylamine as a substrate, respectively. In addition, the activities of the compounds according to the present invention against recombinant human DAO (diamine oxidase, R&D systems) were evaluated in a similar manner to the activity evaluation method for recombinant human LOXL2, using 1 mM putrescine as a substrate.

Where a name gives a salt, the structure may show the parent alone.

For orientation: IC50 means the concentration that inhibits the measured activity by half. `N#Cc1cc(-c2cncnc2)c2nnn(C/C(F)=C/CN)c2c1` [Example 210, (Z)-1-(4-amino-2-fluorobut-2-en-1-yl)-4-(pyrimidin-5-yl)-1H-benzo[d][1,2,3]triazol-6-carbo nitrile hydrochloride]: the IC50 in assay [1] is 264 nM; in assay [2], 432 nM. In the same order, the values of `Cn1nccc1-c1cc(C#N)cc2c1nnn2C/C(F)=C/CN` [Example 211, (Z)-1-(4-amino-2-fluorobut-2-en-1-yl)-4-(1-methyl-1H-pyrazol-5-yl)-1H-benzo[d][1,2,3]triazol-6-carbonitrile hydrochloride] are 350 nM and 1730 nM. In the same order, the values of `N#Cc1cc(-c2cc(CO)ccc2F)c2nnn(C/C(F)=C/CN)c2c1` [Example 206, (Z)-1-(4-amino-2-fluorobut-2-en-1-yl)-4-[2-fluoro-5-(hydroxymethyl)phenyl]-1H-benzo[d][1,2,3]triazol-6-carbonitrile hydrochloride] are 200 nM and 1960 nM.

For `N#Cc1cc(-c2cccc(CO)c2Cl)c2nnn(C/C(F)=C/CN)c2c1` [Example 207, (Z)-1-(4-amino-2-fluorobut-2-en-1-yl)-4-[2-chloro-3-(hydroxymethyl)phenyl-1H-benzo[d][1,2,3]triazol-6-carbonitrile hydrochloride], the IC50 in assay [1] came out at 281 nM; in assay [2], 7440 nM. As to `CCS(=O)(=O)c1cccc(-c2cc(C(=O)OC)cc3c2nnn3C/C(F)=C/CN)c1` [Example 127, methyl (Z)-1-(4-amino-2-fluorobut-2-en-1-yl)-4-(3-(ethylsulfonyl)phenyl)-1H-benzo[d][1,2,3]triazol-6-carboxylate hydrochloride], in assay [1], the IC50 worked out at 19 nM. On the same count and under the same terms, then `N#Cc1cc(-c2cncc(F)c2)c2ncn(C/C(F)=C/CN)c2c1` [Example 188, (Z)-1-(4-amino-2-fluorobut-2-en-1-yl)-4-(5-fluoropyridin-3-yl)-1H-benzo[d]imidazol-6-carbonitrile hydrochloride], with 131 nM. Regarding `CN(C)S(=O)(=O)c1cccc(-c2cc(C(F)(F)F)cc3c2nnn3C/C(F)=C/CN)c1` [Example 196, (Z)-3-(1-(4-amino-2-fluorobut-2-en-1-yl)-6-(trifluoromethyl)-1H-benzo[d][1,2,3]triazol-4-yl)—N,N-dimethylbenzenesulfonamide hydrochloride], the IC50 worked out at 34 nM in assay [1] and 3150 nM in assay [2]. As for `CONC(=O)c1cc(-c2cc(S(=O)(=O)NC3CC3)ccc2OC)c2nnn(C/C(F)=C/CN)c2c1` [Example 136, (Z)-1-(4-amino-2-fluorobut-2-en-1-yl)-4-(5-(N-cyclopropylsulfamoyl)-2-methoxyphenyl)-N-methoxy-1H-benzo[d][1,2,3]triazol-6-carboxamide hydrochloride], in assay [1], the IC50 is 6.4 nM.

On to `COC(=O)c1cc(-c2cccc(S(=O)(=O)N3CCCCC3)c2)c2ncn(C/C(F)=C/CN)c2c1` [Example 33, methyl (Z)-1-(4-amino-2-fluorobut-2-en-1-yl)-4-(3-(piperidin-1-ylsulfonyl)phenyl)-1H-benzo[d]imidazol-6-carboxylate hydrochloride], for which the IC50 in assay [1] worked out at 55.6 nM. On the same count and under the same terms, for `CON(C)C(=O)c1cc(-c2cccc(S(=O)(=O)N3CCCC3)c2)c2nnn(C/C(F)=C/CN)c2c1` [Example 137, (Z)-1-(4-amino-2-fluorobut-2-en-1-yl)-N-methoxy-N-methyl-4-(3-(pyrrolidin-1-ylsulfonyl)phenyl)-1H-benzo[d][1,2,3]triazol-6-carboxamide hydrochloride] the value was 37 nM.

The record behind these values is patent US12686665B2, “Bicyclic fused ring derivative or salt thereof and pharmaceutical composition comprising same” (YUHAN CORPORATION, priority 2021, dated 2026).
